The text below walks through data of EPA's ToxValDB 9.5 (doi:10.2903/j.efsa.2018.5467).

Molecules are shown by their SMILES. ≈ marks a conversion by molar mass, not a printed value.

Data set [1] deals with Apis mellifera. As to conditions: acute, mortality.
Data set [2] has as its system Typhlodromus pyri. As to conditions: chronic/long-term; reproduction.
The subject of data set [3] is Colinus virginianus. As to conditions: for LD50: acute, oral, mortality.
In data set [4] the test system is Lepomis macrochirus.
Data set [5] concerns Tagia sp. As to conditions: chronic/long-term; duration: 56 days; reproduction.
The subject of data set [6] is Bibionidae. As to conditions: chronic/long-term; duration: 28 days; other.
The subject of data set [7] is Daphnia magna. As to conditions: chronic/long-term; duration: 21 days; other.
Data set [8] deals with Rattus norvegicus.
The test system of data set [9] is Typhlodromus pyri. Briefly: LR50; higher = less toxic. As to conditions: acute; mortality.

In the case of `C#CCOC(=O)[C@@H](C)Oc1ccc(Oc2ncc(Cl)cc2F)cc1` [Clodinafop-propargyl], the LD50 in data set [1] (dermal) is > 271 µg/piece; in [1] (oral, unspecified), > 104 µg/piece; in data set [3] (duration: 5 days, diet), > 1040 mg/kg-day; in data set [3], 1460 mg/kg-day; in data set [8] (acute, oral, mortality), > 1390 mg/kg-day. Also, the NOEC in data set [2] was determined as 90 g/ha; in data set [3] (reproduction developmental), 48.9 mg/kg-day; in data set [4] (chronic/long-term, duration: 33 days, other) it was 0.024 mg/L; in data set [5] it was 5 mg/kg; in data set [6], 1.2 mg/L; in [7], 0.23 mg/L. In data set [4] (acute, duration: 96 hours, mortality), the LC50 – broadly, the concentration that kills 50% of the test population – was 0.21 µg/mL (≈ 0.6 µM). In addition, the NOAEL (as a rule, the highest tested level that showed no adverse finding) was determined as 0.03 mg/kg-day in data set [8] (chronic, duration: 2 years, clinical chemistry); 5 mg/kg-day in data set [8] (developmental, development); 3.4 mg/kg-day in data set [8] (reproduction developmental, body weight). Moreover, the LR50 in data set [9] is > 90 g/ha.
